Reference: paper PMC5218480 (PLoS ONE, 2017)

Test system: MV-4-11 cells
Experiment: Gene expression microarray analysis (Affymetrix PrimeView) and GSEA
Assay type: cell-based, human
Design: RFU PODN (11730768_x_at) / Fold change /veh PODN (11730768_x_at) / RFU LINC00158 (11744669_a_at) / Fold change /veh LINC00158 (11744669_a_at) / RFU DUSP10 (11751237_a_at) / Fold change /veh DUSP10 (11751237_a_at) / RFU ID3 (11757404_x_at) / Fold change /veh ID3 (11757404_x_at) / RFU PLEKHG5 (11737974_s_at) / Fold change /veh PLEKHG5 (11737974_s_at) / RFU LRRC4B (11730491_at) / Fold change /veh LRRC4B (11730491_at) / RFU GIMAP4 (11747438_a_at) / Fold change /veh GIMAP4 (11747438_a_at) / RFU KRT8 (11758183_x_at) / Fold change /veh KRT8 (11758183_x_at) / RFU CNN1 (11734310_a_at) / Fold change /veh CNN1 (11734310_a_at) / RFU VPS37D (11726825_at) / Fold change /veh VPS37D (11726825_at) / RFU C10orf10 (11716522_x_at) / Fold change /veh C10orf10 (11716522_x_at) / RFU KIR2DL2 /// KIR2DL4 /// KIR2DL5A /// KIR2DL5B /// KIR2DS1 /// KIR2DS2 /// KIR2DS3 /// KIR2DS4 /// KIR3DL3 /// KIR3DL3 /// KIR3DS1 (11738374_at) / Fold change /veh KIR2DL2 /// KIR2DL4 /// KIR2DL5A /// KIR2DL5B /// KIR2DS1 /// KIR2DS2 /// KIR2DS3 /// KIR2DS4 /// KIR3DL3 /// KIR3DL3 /// KIR3DS1 (11738374_at) / RFU C1QL1 (11718748_at) / Fold change /veh C1QL1 (11718748_at) / RFU TMPRSS4 (11747572_a_at) / Fold change /veh TMPRSS4 (11747572_a_at) / RFU HAMP (11756126_x_at) / Fold change /veh HAMP (11756126_x_at) / RFU RNFT2 (11725882_a_at) / Fold change /veh RNFT2 (11725882_a_at) / RFU NR4A2 (11747474_a_at) / Fold change /veh NR4A2 (11747474_a_at) / RFU ABCC12 (11746883_a_at) / Fold change /veh ABCC12 (11746883_a_at) / RFU TMEM136 (11760407_x_at) / Fold change /veh TMEM136 (11760407_x_at) / RFU CLDN22 /// WWC2 (11732394_at) / Fold change /veh CLDN22 /// WWC2 (11732394_at) / RFU HLA-DPB1 (11760878_x_at) / Fold change /veh HLA-DPB1 (11760878_x_at) / RFU SPINT1 (11716480_a_at) / Fold change /veh SPINT1 (11716480_a_at) / RFU GAP43 (11754022_s_at) / Fold change /veh GAP43 (11754022_s_at) / RFU A4GNT (11735810_at) / Fold change /veh A4GNT (11735810_at) / RFU PRB3 (11715151_x_at) / Fold change /veh PRB3 (11715151_x_at) / RFU TUBB4B (11761932_at) / Fold change /veh TUBB4B (11761932_at) / RFU CAPN14 (11732068_a_at) / Fold change /veh CAPN14 (11732068_a_at) / RFU TMCC2 (11721928_a_at) / Fold change /veh TMCC2 (11721928_a_at) / RFU IRGQ (11745062_a_at) / Fold change /veh IRGQ (11745062_a_at) / RFU FAM174B (11720279_a_at) / Fold change /veh FAM174B (11720279_a_at) / RFU TMPRSS4 (11748680_a_at) / Fold change /veh TMPRSS4 (11748680_a_at) / RFU FAM212B (11763350_a_at) / Fold change /veh FAM212B (11763350_a_at) / RFU PLEKHG5 (11743358_a_at) / Fold change /veh PLEKHG5 (11743358_a_at) / RFU ZSCAN30 (11745921_a_at) / Fold change /veh ZSCAN30 (11745921_a_at) / RFU CMKLR1 (11741424_a_at) / Fold change /veh CMKLR1 (11741424_a_at) / RFU LOC101060620 /// MAPK8IP1 (11723275_at) / Fold change /veh LOC101060620 /// MAPK8IP1 (11723275_at) / RFU SPTSSB (11747773_x_at) / Fold change /veh SPTSSB (11747773_x_at) / RFU PRSS12 (11739890_at) / Fold change /veh PRSS12 (11739890_at) / RFU BIN1 (11741810_x_at) / Fold change /veh BIN1 (11741810_x_at) / RFU WNT11 (11732464_a_at) / Fold change /veh WNT11 (11732464_a_at) / RFU C10orf10 (11716521_a_at) / Fold change /veh C10orf10 (11716521_a_at) / RFU C5orf56 (11738089_at) / Fold change /veh C5orf56 (11738089_at) / RFU CYB561 (11721691_x_at) / Fold change /veh CYB561 (11721691_x_at) / RFU ANKRD19P (11752326_a_at) / Fold change /veh ANKRD19P (11752326_a_at) / RFU OR2T12 /// OR2T33 /// OR2T8 (11738714_s_at) / Fold change /veh OR2T12 /// OR2T33 /// OR2T8 (11738714_s_at) / RFU VCAN (11748164_a_at) / Fold change /veh VCAN (11748164_a_at) / RFU JSRP1 (11732532_at) / Fold change /veh JSRP1 (11732532_at) / RFU KRTAP10-11 (11738290_x_at) / Fold change /veh KRTAP10-11 (11738290_x_at) / RFU MYO3A (11730013_a_at) / Fold change /veh MYO3A (11730013_a_at) / RFU EBF3 (11725865_a_at) / Fold change /veh EBF3 (11725865_a_at) / RFU CAMK2N1 (11719241_x_at) / Fold change /veh CAMK2N1 (11719241_x_at) / RFU C5orf56 (11738088_a_at) / Fold change /veh C5orf56 (11738088_a_at) / RFU OLFML3 (11715873_a_at) / Fold change /veh OLFML3 (11715873_a_at) / RFU LOC100653217 /// NTM (11731650_a_at) / Fold change /veh LOC100653217 /// NTM (11731650_a_at) / RFU MAPK11 (11762145_a_at) / Fold change /veh MAPK11 (11762145_a_at) / RFU FIZ1 (11724087_x_at) / Fold change /veh FIZ1 (11724087_x_at) / RFU OASL (11726364_x_at) / Fold change /veh OASL (11726364_x_at) / RFU SOX15 (11748057_x_at) / Fold change /veh SOX15 (11748057_x_at) / RFU CD79A (11719716_a_at) / Fold change /veh CD79A (11719716_a_at) / RFU HIST1H1D (11736915_at) / Fold change /veh HIST1H1D (11736915_at) / RFU CASKIN2 (11723855_a_at) / Fold change /veh CASKIN2 (11723855_a_at) / RFU LOC730098 (11760151_x_at) / Fold change /veh LOC730098 (11760151_x_at) / RFU OR4N2 (11742367_at) / Fold change /veh OR4N2 (11742367_at) / RFU PRRT2 (11749266_a_at) / Fold change /veh PRRT2 (11749266_a_at) / RFU SNX32 (11753110_a_at) / Fold change /veh SNX32 (11753110_a_at) / RFU CDHR5 (11726645_a_at) / Fold change /veh CDHR5 (11726645_a_at) / RFU RCAN1 (11760418_a_at) / Fold change /veh RCAN1 (11760418_a_at) / RFU FAM167A (11723789_a_at) / Fold change /veh FAM167A (11723789_a_at) / RFU FAM26E (11764081_at) / Fold change /veh FAM26E (11764081_at) / RFU ISYNA1 (11749810_s_at) / Fold change /veh ISYNA1 (11749810_s_at) / RFU ACY1 (11761880_at) / Fold change /veh ACY1 (11761880_at) / RFU 11764098_at / Fold change /veh 11764098_at / RFU SAMD14 (11745864_x_at) / Fold change /veh SAMD14 (11745864_x_at) / RFU NPB (11741838_a_at) / Fold change /veh NPB (11741838_a_at) / RFU TMPRSS6 (11731388_a_at) / Fold change /veh TMPRSS6 (11731388_a_at) / RFU KRTAP10-2 (11738614_at) / Fold change /veh KRTAP10-2 (11738614_at) / RFU ARHGAP8 /// PRR5-ARHGAP8 (11727945_x_at) / Fold change /veh ARHGAP8 /// PRR5-ARHGAP8 (11727945_x_at) / RFU KRTAP5-7 /// NADSYN1 (11734609_at) / Fold change /veh KRTAP5-7 /// NADSYN1 (11734609_at) / RFU RASL12 (11751679_a_at) / Fold change /veh RASL12 (11751679_a_at) / RFU CDKN2B (11736163_a_at) / Fold change /veh CDKN2B (11736163_a_at) / RFU PRF1 (11729649_at) / Fold change /veh PRF1 (11729649_at) / RFU, ZNF638 /// ZNF638-IT1 / Fold change vs veh, ZNF638 /// ZNF638-IT1 / RFU, PANK3 / Fold change vs veh, PANK3 / RFU, SH3YL1 / Fold change vs veh, SH3YL1 / RFU, ZEB2 / Fold change vs veh, ZEB2 / RFU, NRIP1 / Fold change vs veh, NRIP1 / RFU, PTTG1IP / Fold change vs veh, PTTG1IP / RFU, CAPN2 / Fold change vs veh, CAPN2 / RFU, MED14 / Fold change vs veh, MED14 / RFU, SNORA58 / Fold change vs veh, SNORA58 / RFU, C1orf63 / Fold change vs veh, C1orf63 / RFU, LRRFIP1 / Fold change vs veh, LRRFIP1 / RFU, NDUFAF7 / Fold change vs veh, NDUFAF7 / RFU, SLC12A2 / Fold change vs veh, SLC12A2 / RFU, IBTK / Fold change vs veh, IBTK / RFU, ESF1 / Fold change vs veh, ESF1 / Fold change vs veh, TMEM50B / RFU, TAOK1 / Fold change vs veh, TAOK1 / RFU, ACBD3 / Fold change vs veh, ACBD3 / RFU, TMA16 / Fold change vs veh, TMA16 / RFU, RWDD3 / Fold change vs veh, RWDD3 / RFU, BCAT1 / Fold change vs veh, BCAT1 / RFU, EDEM3 / Fold change vs veh, EDEM3 / RFU, TMEM33 / Fold change vs veh, TMEM33 / RFU, WDR75 / Fold change vs veh, WDR75 / RFU, AHCTF1 / Fold change vs veh, AHCTF1 / RFU, TFRC / Fold change vs veh, TFRC / RFU, ZDHHC17 / Fold change vs veh, ZDHHC17 / RFU, NOM1 / Fold change vs veh, NOM1 / RFU, ARL8B / Fold change vs veh, ARL8B / RFU, ZBTB11 / Fold change vs veh, ZBTB11 / RFU, TAMM41 / Fold change vs veh, TAMM41 / RFU, KIAA1704 /// LOC100996395 / Fold change vs veh, KIAA1704 /// LOC100996395 / RFU, ING1 / Fold change vs veh, ING1 / RFU, TRMT61B / Fold change vs veh, TRMT61B / RFU, FUBP3 / Fold change vs veh, FUBP3 / RFU, TP53 / Fold change vs veh, TP53 / RFU, TNKS2 / Fold change vs veh, TNKS2 / RFU, ZFP14 / Fold change vs veh, ZFP14 / RFU, ACTR2 / Fold change vs veh, ACTR2 / RFU, PPP3R1 / Fold change vs veh, PPP3R1 / RFU, PIK3R1 / Fold change vs veh, PIK3R1 / RFU, HNRNPA1 / Fold change vs veh, HNRNPA1 / RFU, RNF170 / Fold change vs veh, RNF170 / RFU, ZNF28 / Fold change vs veh, ZNF28 / RFU, RNGTT / Fold change vs veh, RNGTT / RFU, OGT / Fold change vs veh, OGT / RFU, BRD1 / Fold change vs veh, BRD1 / RFU, MARS / Fold change vs veh, MARS / RFU, ZNF655 / Fold change vs veh, ZNF655 / RFU, FAHD1 / Fold change vs veh, FAHD1 / RFU, BDP1 / Fold change vs veh, BDP1 / RFU, LRRCC1 / Fold change vs veh, LRRCC1 / RFU, ARID1A / Fold change vs veh, ARID1A / RFU, ZNF146 / Fold change vs veh, ZNF146 / RFU, ZNF330 / Fold change vs veh, ZNF330 / RFU, GPN3 / Fold change vs veh, GPN3 / RFU, C9orf123 / Fold change vs veh, C9orf123 / RFU, N4BP2L2 / Fold change vs veh, N4BP2L2 / RFU, ARFIP1 / Fold change vs veh, ARFIP1 / RFU, FAM179B / Fold change vs veh, FAM179B / RFU, BCL10 / Fold change vs veh, BCL10 / RFU, UHRF1BP1L / Fold change vs veh, UHRF1BP1L / RFU, BET1 / Fold change vs veh, BET1 / RFU, CNOT2 / Fold change vs veh, CNOT2 / RFU, ZNF268 / Fold change vs veh, ZNF268 / Fold change vs veh, ZNF507 / RFU, DGCR2 / Fold change vs veh, DGCR2 / RFU, WDSUB1 / Fold change vs veh, WDSUB1 / Fold change vs veh, HSP90B1 /// MIR3652 / RFU, ADSS / Fold change vs veh, ADSS / RFU, GK / Fold change vs veh, GK / RFU, ZNF148 / Fold change vs veh, ZNF148 / RFU, TAF9 / Fold change vs veh, TAF9 / RFU, SLC1A5 / Fold change vs veh, SLC1A5 / RFU, SLMO2 / Fold change vs veh, SLMO2 / RFU, ABCC4 / Fold change vs veh, ABCC4 / RFU, LOC101060439 /// RAP1B / Fold change vs veh, LOC101060439 /// RAP1B / RFU, RFX7 / Fold change vs veh, RFX7 / RFU, GTPBP10 / Fold change vs veh, GTPBP10 / RFU, CNEP1R1 / Fold change vs veh, CNEP1R1 / RFU, BIVM-ERCC5 /// ERCC5 / Fold change vs veh, BIVM-ERCC5 /// ERCC5 / RFU, ILF3 / Fold change vs veh, ILF3 / RFU 11762660_at / Fold change /veh 11762660_at / RFU VCAN (11757783_s_at) / Fold change /veh VCAN (11757783_s_at) / RFU DDX43 (11728927_at) / Fold change /veh DDX43 (11728927_at) / RFU KRT8 (11758188_x_at) / Fold change /veh KRT8 (11758188_x_at) / RFU NKD1 (11759106_at) / Fold change /veh NKD1 (11759106_at) / RFU SRD5A1 (11742802_a_at) / Fold change /veh SRD5A1 (11742802_a_at) / RFU TPSAB1 /// TPSB2 (11721975_s_at) / Fold change /veh TPSAB1 /// TPSB2 (11721975_s_at) / RFU GSTM3 (11746129_a_at) / Fold change /veh GSTM3 (11746129_a_at) / RFU IL23R (11737362_x_at) / Fold change /veh IL23R (11737362_x_at) / RFU TMEM51 (11727254_a_at) / Fold change /veh TMEM51 (11727254_a_at) / RFU PIWIL2 (11732686_x_at) / Fold change /veh PIWIL2 (11732686_x_at) / RFU ORM1 (11744905_x_at) / Fold change /veh ORM1 (11744905_x_at) / RFU CCDC152 (11743942_at) / Fold change /veh CCDC152 (11743942_at) / RFU ECM1 (11717891_a_at) / Fold change /veh ECM1 (11717891_a_at) / RFU IL23R (11748794_a_at) / Fold change /veh IL23R (11748794_a_at) / RFU TNFAIP8L3 (11732012_x_at) / Fold change /veh TNFAIP8L3 (11732012_x_at) / RFU MBOAT4 (11741988_at) / Fold change /veh MBOAT4 (11741988_at) / RFU 11764193_at / Fold change /veh 11764193_at / RFU TMEM53 (11763286_at) / Fold change /veh TMEM53 (11763286_at) / RFU MAGEB2 (11727129_at) / Fold change /veh MAGEB2 (11727129_at) / RFU TMEM200A (11744735_a_at) / Fold change /veh TMEM200A (11744735_a_at) / RFU CCDC152 (11751479_a_at) / Fold change /veh CCDC152 (11751479_a_at) / RFU FAM211A (11726209_a_at) / Fold change /veh FAM211A (11726209_a_at) / RFU RGS16 (11746705_a_at) / Fold change /veh RGS16 (11746705_a_at) / RFU VCAN (11755009_s_at) / Fold change /veh VCAN (11755009_s_at) / RFU RHOB (11743442_s_at) / Fold change /veh RHOB (11743442_s_at) / RFU RGS16 (11720943_a_at) / Fold change /veh RGS16 (11720943_a_at) / RFU RGS16 (11720944_at) / Fold change /veh RGS16 (11720944_at) / RFU, VPS4B / Fold change vs veh, VPS4B / RFU, CREB1 / Fold change vs veh, CREB1 / RFU, DNAJC13 / Fold change vs veh, DNAJC13 / RFU, GNAQ / Fold change vs veh, GNAQ / RFU, CDK5R1 / Fold change vs veh, CDK5R1 / RFU, ZRANB3 / Fold change vs veh, ZRANB3 / RFU, CUL4A / Fold change vs veh, CUL4A / RFU, CCNY / Fold change vs veh, CCNY / RFU, UFL1 / Fold change vs veh, UFL1 / RFU, COG3 / Fold change vs veh, COG3 / RFU, DIAPH2 / Fold change vs veh, DIAPH2 / RFU, SKA2 / Fold change vs veh, SKA2 / RFU, AFF3 / Fold change vs veh, AFF3 / RFU, LMF1 / Fold change vs veh, LMF1 / RFU, IPO11 / Fold change vs veh, IPO11 / RFU, DFFB / Fold change vs veh, DFFB / RFU, FOXP1 / Fold change vs veh, FOXP1 / RFU, CARD8 / Fold change vs veh, CARD8 / RFU, STRN3 / Fold change vs veh, STRN3 / RFU, ADK / Fold change vs veh, ADK / RFU, RASSF2 / Fold change vs veh, RASSF2 / RFU, WIPF1 / Fold change vs veh, WIPF1 / RFU, LARP1B / Fold change vs veh, LARP1B / RFU, RASA1 / Fold change vs veh, RASA1 / RFU, RB1 / Fold change vs veh, RB1 / RFU, PPFIA1 / Fold change vs veh, PPFIA1 / RFU, MAT2A / Fold change vs veh, MAT2A / RFU, CCT5 / Fold change vs veh, CCT5 / RFU, WDR92 / Fold change vs veh, WDR92 / RFU, CUX1 / Fold change vs veh, CUX1 / RFU, TTC7A / Fold change vs veh, TTC7A / RFU, TMEM135 / Fold change vs veh, TMEM135 / RFU, DEPTOR / Fold change vs veh, DEPTOR / RFU, CPM / Fold change vs veh, CPM / RFU, DNAJB6 / Fold change vs veh, DNAJB6 / RFU, CACNA2D3 / Fold change vs veh, CACNA2D3 / RFU, DTX4 / Fold change vs veh, DTX4 / RFU, TFCP2 / Fold change vs veh, TFCP2 / RFU, GMCL1 /// GMCL1P1 / Fold change vs veh, GMCL1 /// GMCL1P1 / RFU, AEBP2 / Fold change vs veh, AEBP2 / RFU, SNHG1 /// SNORD22 /// SNORD25 /// SNORD26 /// SNORD27 /// SNORD28 /// SNORD29 /// SNORD31 / Fold change vs veh, SNHG1 /// SNORD22 /// SNORD25 /// SNORD26 /// SNORD27 /// SNORD28 /// SNORD29 /// SNORD31 / Fold change (Aza/veh), C12orf56 (ProbeSet 11735607_a_at) / Fold change (ACY-1035/veh), C12orf56 (ProbeSet 11735607_a_at) / Fold change (Aza/veh), FGFR1OP (ProbeSet 11751329_s_at) / Fold change (ACY-1035/veh), FGFR1OP (ProbeSet 11751329_s_at) / Fold change (Aza/veh), VPS36 (ProbeSet 11739960_a_at) / Fold change (ACY-1035/veh), VPS36 (ProbeSet 11739960_a_at) / RFU SYPL1 (11715823_x_at) / Fold change /veh SYPL1 (11715823_x_at) / RFU IGFBP7 (11715501_s_at) / Fold change /veh IGFBP7 (11715501_s_at) / RFU REEP3 (11722064_at) / Fold change /veh REEP3 (11722064_at) / RFU IGLL1 (11728026_x_at) / Fold change /veh IGLL1 (11728026_x_at): dose or concentration left out as unconfirmed
Details: MV-4-11 cells, 48 hours

Nc1ccc(-c2cccs2)cc1NC(=O)c1ccc2c(c1)cc(C1CC1)n2CCN1CCOCC1 [ACY-1035]
RFU RGS16 (11746705_a_at): 52.79 RFU
